The results in this text go back to patent publication US20260232682A1, “GSPT1 DEGRADER COMPOUNDS” (Captor Therapeutics S.A., priority 2023, published 2026).

Assay [1] has as its target CRBN/DDB1 protein complex (Homo sapiens, UniProt Q96SW2). As to the kind of experiment: CRBN displacement TR-FRET assay. The following applies: Thalidomide-Red tracer, 6×His-CRBN/DDB1; read-out: CRBN binding Ki. The gist of the method:
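Test compound at various concentrations competed with 6.8 nM Thalidomide-Red tracer for 5 nM 6×His-CRBN/DDB1, detected with 0.5 nM anti-His-Eu cryptate in buffer with 1 mM DTT and 1% DMSO. Incubation ran 180 min at room temperature with a time-resolved fluorescence read-out. IC50 values were converted to Ki by Cheng–Prusoff using tracer Kd and protein and tracer concentrations.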
Background: Time-resolved FRET reads energy transfer from a long-lived donor to a nearby acceptor.

Assay [2] addresses [GSPT1]-[compound of formula (I)]-[CRBN/DDB1] complex (Homo sapiens, UniProt P15170+Q96SW2). In words: HTRF ternary complex assay (GSPT1). Format: binding. As to conditions: read-out: HTRF ternary complex Average pEC50 by molecule (converted). The gist of the method: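 Compounds in dose-response were incubated 180 min at 25 °C with 48 nM GSPT1 and 52.8 nM 6×His-CRBN/DDB1, plus Streptavidin-Eu cryptate and anti-6×His-d2, in buffer with 1 mM DTT and 0.5% DMSO. TR-FRET (665/620) was normalized to DMSO background and fitted with a Hill slope model for EC50/pEC50.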

For assay [3], the target named is T1, [IKZF1 ZF2]-[compound]-[CRBN/DDB1] ternary complex (Homo sapiens, UniProt Q13422+Q96SW2).
T1 construct: IKZF1 ZF2
As to the kind of experiment: AlphaLISA assay for off-target recruitment detection, IKZF1 ZF2. Format: binding. The following applies: 1 μM compound; normalized to Lenalidomide; read-out: Normalized ternary complex response, IKZF1 ZF2. The gist of the method: (§1)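 Neo-substrate with 40 μg/ml donor beads and 200 nM 6×His-CRBN/DDB1 with 40 μg/ml anti-His acceptor beads were each prepared in PBS pH 7.4 with Tween-20 and 1 mM DTT, preincubated 30 min at RT, then mixed. Compounds at 2% DMSO were incubated 30 min at 25 °C, read at 680/615 nm, and normalised between DMSO background and reference glue maximum.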
In general terms: Bead proximity is the source of the signal in Alpha formats.

Assay [4] deals with T2, [IKZF2 ZF2]-[compound]-[CRBN/DDB1] ternary complex (Homo sapiens, UniProt Q96SW2+Q9UKS7).
T2 construct: IKZF2 ZF2
As to the kind of experiment: AlphaLISA assay for off-target recruitment detection, IKZF2 ZF2. As to conditions: 1 μM compound; normalized to Helios modulator; read-out: Normalized ternary complex response, IKZF2 ZF2. The assay is classed as binding. The gist of the method: as §1

Assay [5] has as its target [CK1α]-[compound]-[CRBN/DDB1] ternary complex (Homo sapiens, UniProt P48729+Q96SW2). As to the kind of experiment: AlphaLISA assay for off-target recruitment detection, CK1α. The assay is classed as binding. The following applies: 1 μM compound; normalized to FPFT-2216; read-out: Normalized ternary complex response, CK1α. The gist of the method:
as §1

The test system of the next assay is GSPT1-HiBiT HEK293 cells. As to the kind of experiment: Cell Viability-CTG assay accompanying the Nano-Glo HiBiT assay. The assay is classed as cell-based. The following applies: 6 hours treatment, viability of GSPT1-HiBiT HEK293 cells. Here is the method:
In parallel, the Cell Viability-CTG assay was performed to ensure that the potential decrease of the luminescent signal observed in the Nano-Glo HiBiT assay is a result of protein degradation and not a result of decreasing cell viability. For CTG assay accompanying the Nano-Glo HiBiT assay, cells were cultured, seeded and treated as described above. After 6 hours of incubation (37° C., 5% CO2), plates were removed from the incubator and let to equilibrate to RT. Luminescent signal detection was conducted using the CellTiter-Glo Lumiescent Cell Viability Assay (Promega, cat. nr G7573). 10 μL of the Cell Titer Glo reagent was added per well, plates were shaken to facilitate lysis (460 rpm, 4 min, RT) and incubated in the dark for the following 8 min. Luminescence was read using the CLARIOstar multimode plate reader (BMG LABTECH). The raw data (the relative luminescence unit values, RLU) were uploaded under the relevant protocol and analysed in CDDVault data management platform, in a manner similar to the description above. The Mean Minimum values were calculated in CDDVault using non-linear regression and appropriate equations.
Background: HiBiT is a short tag that completes a luciferase, so light tracks the accessible tagged protein.

Molecules are shown by their SMILES.

T1 sequence (Q13422 145-167 limits assumed): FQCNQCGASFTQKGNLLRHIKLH
T1 sequence (Q96SW2 whole entry): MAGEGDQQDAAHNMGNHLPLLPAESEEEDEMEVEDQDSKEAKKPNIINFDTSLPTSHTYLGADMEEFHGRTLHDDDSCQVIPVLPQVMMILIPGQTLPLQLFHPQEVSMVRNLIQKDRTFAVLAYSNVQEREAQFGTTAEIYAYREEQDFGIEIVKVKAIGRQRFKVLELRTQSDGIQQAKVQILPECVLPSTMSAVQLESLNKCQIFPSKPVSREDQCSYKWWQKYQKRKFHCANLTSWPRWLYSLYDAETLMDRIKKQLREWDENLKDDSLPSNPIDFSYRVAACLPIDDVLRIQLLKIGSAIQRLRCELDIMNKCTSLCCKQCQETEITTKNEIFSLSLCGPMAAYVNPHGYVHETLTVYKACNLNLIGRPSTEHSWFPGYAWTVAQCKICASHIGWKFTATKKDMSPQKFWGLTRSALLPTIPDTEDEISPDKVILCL
T1 sequence (Q16531 whole entry partner): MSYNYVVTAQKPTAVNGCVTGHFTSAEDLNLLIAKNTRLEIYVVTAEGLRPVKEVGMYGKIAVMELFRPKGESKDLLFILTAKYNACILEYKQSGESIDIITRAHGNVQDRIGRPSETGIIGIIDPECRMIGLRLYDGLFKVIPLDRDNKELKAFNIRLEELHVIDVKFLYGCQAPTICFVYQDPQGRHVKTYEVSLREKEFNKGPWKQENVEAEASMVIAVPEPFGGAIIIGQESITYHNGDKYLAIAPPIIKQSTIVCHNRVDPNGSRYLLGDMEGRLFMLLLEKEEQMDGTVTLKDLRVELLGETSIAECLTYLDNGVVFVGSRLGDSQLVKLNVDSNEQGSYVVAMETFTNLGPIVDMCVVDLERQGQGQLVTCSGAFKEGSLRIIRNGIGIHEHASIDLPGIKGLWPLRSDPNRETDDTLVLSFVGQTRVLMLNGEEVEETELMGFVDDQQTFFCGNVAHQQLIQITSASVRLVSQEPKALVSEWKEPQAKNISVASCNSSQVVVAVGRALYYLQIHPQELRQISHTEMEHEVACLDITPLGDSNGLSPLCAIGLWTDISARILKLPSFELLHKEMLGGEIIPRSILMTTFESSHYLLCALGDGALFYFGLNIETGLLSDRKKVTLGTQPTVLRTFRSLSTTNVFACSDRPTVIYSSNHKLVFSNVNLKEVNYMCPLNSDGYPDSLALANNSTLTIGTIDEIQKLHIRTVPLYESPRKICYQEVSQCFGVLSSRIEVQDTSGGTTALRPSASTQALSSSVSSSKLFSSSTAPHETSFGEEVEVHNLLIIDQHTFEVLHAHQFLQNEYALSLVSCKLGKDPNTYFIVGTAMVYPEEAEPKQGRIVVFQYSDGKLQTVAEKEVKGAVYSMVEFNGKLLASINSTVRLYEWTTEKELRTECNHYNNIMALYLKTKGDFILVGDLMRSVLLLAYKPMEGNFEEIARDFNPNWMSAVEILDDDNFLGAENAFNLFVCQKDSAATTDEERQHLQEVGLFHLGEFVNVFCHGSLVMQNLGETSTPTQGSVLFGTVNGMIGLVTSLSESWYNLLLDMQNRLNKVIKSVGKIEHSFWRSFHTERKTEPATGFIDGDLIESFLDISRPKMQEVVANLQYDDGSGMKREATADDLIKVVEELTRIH
Sequence of [GSPT1]-[compound of formula (I)]-[CRBN/DDB1] complex (P15170 whole entry): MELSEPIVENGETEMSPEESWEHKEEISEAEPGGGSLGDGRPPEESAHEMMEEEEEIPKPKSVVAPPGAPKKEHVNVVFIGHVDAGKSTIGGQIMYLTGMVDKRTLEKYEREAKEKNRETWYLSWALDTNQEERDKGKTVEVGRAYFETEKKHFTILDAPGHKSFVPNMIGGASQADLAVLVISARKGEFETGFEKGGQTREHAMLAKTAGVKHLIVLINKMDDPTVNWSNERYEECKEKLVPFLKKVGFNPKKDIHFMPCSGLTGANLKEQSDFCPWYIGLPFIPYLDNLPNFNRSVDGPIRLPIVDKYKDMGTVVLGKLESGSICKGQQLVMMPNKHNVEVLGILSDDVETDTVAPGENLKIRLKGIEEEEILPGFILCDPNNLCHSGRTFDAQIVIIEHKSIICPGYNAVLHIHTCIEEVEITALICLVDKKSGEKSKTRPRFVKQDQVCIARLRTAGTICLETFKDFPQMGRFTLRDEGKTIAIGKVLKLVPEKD
Sequence of [GSPT1]-[compound of formula (I)]-[CRBN/DDB1] complex (Q96SW2 whole entry): as the sequence (Q96SW2 whole entry) above
Sequence of [GSPT1]-[compound of formula (I)]-[CRBN/DDB1] complex (Q16531 whole entry partner): as the sequence (Q16531 whole entry partner) above
T2 sequence (Q9UKS7 140-162 limits assumed): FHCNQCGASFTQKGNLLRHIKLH
T2 sequence (Q96SW2 whole entry): as the sequence (Q96SW2 whole entry) above
T2 sequence (Q16531 whole entry partner): as the sequence (Q16531 whole entry partner) above
Sequence of CRBN/DDB1 protein complex (Q96SW2 whole entry, species assumed): as the sequence (Q96SW2 whole entry) above
Sequence of CRBN/DDB1 protein complex (Q16531 whole entry partner, species assumed): as the sequence (Q16531 whole entry partner) above
Sequence of [CK1α]-[compound]-[CRBN/DDB1] ternary complex (P48729 whole entry): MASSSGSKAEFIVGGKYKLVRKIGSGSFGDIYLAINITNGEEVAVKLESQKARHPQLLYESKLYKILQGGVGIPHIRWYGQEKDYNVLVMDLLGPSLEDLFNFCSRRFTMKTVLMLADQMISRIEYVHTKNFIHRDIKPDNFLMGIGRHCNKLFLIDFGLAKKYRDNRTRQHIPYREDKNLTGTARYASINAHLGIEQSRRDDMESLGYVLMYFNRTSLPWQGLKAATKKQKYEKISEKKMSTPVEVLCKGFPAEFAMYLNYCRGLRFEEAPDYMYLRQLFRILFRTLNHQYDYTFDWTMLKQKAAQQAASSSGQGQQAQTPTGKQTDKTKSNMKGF
Sequence of [CK1α]-[compound]-[CRBN/DDB1] ternary complex (Q96SW2 whole entry): as the sequence (Q96SW2 whole entry) above
Sequence of [CK1α]-[compound]-[CRBN/DDB1] ternary complex (Q16531 whole entry partner): as the sequence (Q16531 whole entry partner) above

With `Cc1nc2ccc(CNC(=O)Nc3cc(C(C)(C)C)no3)cc2cc1N1CCC(=O)NC1=O` [Compound 67, 1-(3-(tert-butyl)isoxazol-5-yl)-3-((3-(2,4-dioxotetrahydropyrimidin-1(2H)-yl)-2-methylquinolin-6-yl)methyl)urea], in assay [1], the Ki (commonly a measure of affinity in units of concentration, obtained from inhibition or displacement) is under 500 nM. The EC50 in assay [2] is under 316 nM. In addition, the activation at 1 µM in assay [3] was at least 50%; in assay [4], 25 to 50%; in assay [5] it was 10 to 25%. The “CTG assay Mean minimum” value in the assay on GSPT1-HiBiT HEK293 cells is “++++ (++++≥75% of viability of the HiBiT-GSPT1 HEK293 cells)”.
As to `Cc1nc2cc(COC(=O)Nc3ccc4c(c3)OCCO4)ccc2cc1C1CCC(=O)NC1=O` (stereo not drawn) [Compound 15, (3-(2,6-dioxopiperidin-3-yl)-2-methylquinolin-7-yl)methyl (2,3-dihydrobenzo[b][1,4]dioxin-6-yl)carbamate], the Ki in assay [1] was over 1000 nM. In addition, the EC50 in assay [2] was 316 to 3160 nM. Moreover, the activation at 1 µM in assay [3], in assay [4] and in assay [5] was under 10% in each case. Further, the “CTG assay Mean minimum” value in the assay on GSPT1-HiBiT HEK293 cells was “++++ (++++≥75% of viability of the HiBiT-GSPT1 HEK293 cells)”.
On to `Cc1ccc(NC(=O)OCc2ccc3cc(N4CCC(=O)NC4=O)c(C)nc3c2)cc1Cl` [Compound 28, (3-(2,4-dioxotetrahydropyrimidin-1(2H)-yl)-2-methylquinolin-7-yl)methyl (3-chloro-4-methylphenyl)carbamate], for which the Ki in assay [1] fell in the range of 500 to 1000 nM. The EC50 in assay [2] is 316 to 3160 nM. Also, the activation at 1 µM in assay [3], in assay [4] and in assay [5] was under 10% throughout. In the assay with GSPT1-HiBiT HEK293 cells, the “CTG assay Mean minimum” value is “++++ (++++≥75% of viability of the HiBiT-GSPT1 HEK293 cells)”.
`Cc1ccc(NC(=O)OCc2ccc3cc(C4CCC(=O)NC4=O)c(C)nc3c2F)cc1Cl` (stereo not drawn) [Compound 50, (3-(2,6-dioxopiperidin-3-yl)-8-fluoro-2-methylquinolin-7-yl)methyl (3-chloro-4-methylphenyl)carbamate]: the Ki in assay [1] is 500 to 1000 nM. The EC50 in assay [2] was 316 to 3160 nM. Moreover, the activation at 1 µM in assay [3], in assay [4] and in assay [5] was under 10% in each case. The “CTG assay Mean minimum” value in the assay with GSPT1-HiBiT HEK293 cells is given as “++++ (++++≥75% of viability of the HiBiT-GSPT1 HEK293 cells)”.
Take `Cc1nc2cc(COC(=O)Nc3cc(C(C)(C)C)no3)ccc2cc1N1CCC(=O)NC1=O` [Compound 72, (3-(2,4-dioxotetrahydropyrimidin-1(2H)-yl)-2-methylquinolin-7-yl)methyl (3-(tert-butyl)isoxazol-5-yl)carbamate]: in assay [1], the inhibitory constant (Ki) is 500 to 1000 nM. The EC50 in assay [2] is 316 to 3160 nM. Also, the activation at 1 µM in assay [3], in assay [4] and in assay [5] was under 10% each time. In addition, the “CTG assay Mean minimum” value in the assay on GSPT1-HiBiT HEK293 cells is “++++ (++++≥75% of viability of the HiBiT-GSPT1 HEK293 cells)”.
`COc1cc(C)c(Cl)cc1NC(=O)OCc1ccc2cc(C3CCC(=O)NC3=O)c(C)nc2c1` (stereo not drawn) [Compound 21, (3-(2,6-dioxopiperidin-3-yl)-2-methylquinolin-7-yl)methyl (5-chloro-2-methoxy-4-methylphenyl)carbamate]: the Ki in assay [1] lay within 500 to 1000 nM. Besides, the EC50 in assay [2] is 316 to 3160 nM. Besides, the activation at 1 µM in assay [3], in assay [4] and in assay [5] was under 10% throughout. Also, the “CTG assay Mean minimum” value in the assay on GSPT1-HiBiT HEK293 cells was “++++ (++++≥75% of viability of the HiBiT-GSPT1 HEK293 cells)”.
Consider `Cc1nc2cc(COC(=O)Nc3ccc(N4CCOCC4)nc3)ccc2cc1C1CCC(=O)NC1=O` (stereo not drawn) [Compound 42, (3-(2,6-dioxopiperidin-3-yl)-2-methylquinolin-7-yl)methyl (6-morpholinopyridin-3-yl)carbamate], for which, in assay [1], the Ki is under 500 nM. For the same compound, in assay [2], the EC50 is 316 to 3160 nM. In addition, the activation at 1 µM in assay [3], in assay [4] and in assay [5] was under 10% throughout. Besides, the “CTG assay Mean minimum” value in the assay on GSPT1-HiBiT HEK293 cells is “++++ (++++≥75% of viability of the HiBiT-GSPT1 HEK293 cells)”.
For `Cc1nc2cc(CNC(=O)Nc3cc(C(C)(C)C)no3)ccc2cc1N1CCC(=O)NC1=O` [Compound 64, 1-(3-(tert-butyl)isoxazol-5-yl)-3-((3-(2,4-dioxotetrahydropyrimidin-1(2H)-yl)-2-methylquinolin-7-yl)methyl)urea], the Ki in assay [1] is under 500 nM. Moreover, the EC50 in assay [2] was under 316 nM. The activation at 1 µM in assay [3], in assay [4] and in assay [5] was under 10% each time. Also, the “CTG assay Mean minimum” value in the assay with GSPT1-HiBiT HEK293 cells was “++++ (++++≥75% of viability of the HiBiT-GSPT1 HEK293 cells)”.
Turning to `Cc1nc2cc(COC(=O)Nc3csc(-c4ccccc4)c3)ccc2cc1C1CCC(=O)NC1=O` (stereo not drawn) [Compound 37, (3-(2,6-dioxopiperidin-3-yl)-2-methylquinolin-7-yl)methyl (5-phenylthiophen-3-yl)carbamate], the Ki in assay [1] fell in the range of 500 to 1000 nM. Further, in assay [2], the EC50 is 316 to 3160 nM. Moreover, the activation at 1 µM in assay [3], in assay [4] and in assay [5] was under 10% each time. Besides, in the assay with GSPT1-HiBiT HEK293 cells, the “CTG assay Mean minimum” value is “++++ (++++≥75% of viability of the HiBiT-GSPT1 HEK293 cells)”.
Regarding `Cc1ccc(NC(=O)OCc2ccc3c(C)c(C4CCC(=O)NC4=O)c(C)nc3c2)cc1Cl` (stereo not drawn) [Compound 44, (3-(2,6-dioxopiperidin-3-yl)-2,4-dimethylquinolin-7-yl)methyl (3-chloro-4-methylphenyl)carbamate], the Ki in assay [1] is under 500 nM. In assay [2], the EC50 is under 316 nM. The activation at 1 µM in assay [3], in assay [4] and in assay [5] was under 10% each time. In addition, the “CTG assay Mean minimum” value in the assay on GSPT1-HiBiT HEK293 cells is “++++ (++++≥75% of viability of the HiBiT-GSPT1 HEK293 cells)”.
Take `Cc1nc2cc(COC(=O)Nc3cc(C(C)(C)C)no3)ccc2cc1C1CCC(=O)NC1=O` (stereo not drawn) [Compound 30, (3-(2,6-dioxopiperidin-3-yl)-2-methylquinolin-7-yl)methyl (3-(tert-butyl)isoxazol-5-yl)carbamate]: the inhibitory constant (Ki) in assay [1] is 500 to 1000 nM. In addition, in assay [2], the EC50 was 316 to 3160 nM. The activation at 1 µM in assay [3], in assay [4] and in assay [5] was under 10% throughout. For the same compound, the “CTG assay Mean minimum” value in the assay with GSPT1-HiBiT HEK293 cells is “++++ (++++≥75% of viability of the HiBiT-GSPT1 HEK293 cells)”.
As to `Cc1ncc(NC(=O)OCc2ccc3cc(C4CCC(=O)NC4=O)c(C)nc3c2)cc1Cl` (stereo not drawn) [Compound 58, (3-(2,6-dioxopiperidin-3-yl)-2-methylquinolin-7-yl)methyl (5-chloro-6-methylpyridin-3-yl)carbamate], in assay [1], the Ki was in the range of 500 to 1000 nM. In addition, in assay [2], the EC50 was 316 to 3160 nM. The activation at 1 µM in assay [3], in assay [4] and in assay [5] was under 10% throughout. Moreover, the “CTG assay Mean minimum” value with GSPT1-HiBiT HEK293 cells is given as “++++ (++++≥75% of viability of the HiBiT-GSPT1 HEK293 cells)”.
`Cc1nc2cc(COC(=O)Nc3cccc(-c4ccccc4)c3)ccc2cc1C1CCC(=O)NC1=O` (stereo not drawn) [Compound 46, (3-(2,6-dioxopiperidin-3-yl)-2-methylquinolin-7-yl)methyl [1,1′-biphenyl]-3-ylcarbamate]: in assay [1], the inhibitory constant (Ki) was 500 to 1000 nM. Further, the EC50 in assay [2] was 316 to 3160 nM. In addition, the activation at 1 µM in assay [3], in assay [4] and in assay [5] was under 10% throughout. In the assay on GSPT1-HiBiT HEK293 cells, the “CTG assay Mean minimum” value was “++++ (++++≥75% of viability of the HiBiT-GSPT1 HEK293 cells)”.
